# Test results: US5872210A (priority 1995, dated 1999)
# Where a SMILES comes first, the peptide text is derived from it. Where no end group is shown, it is not given here.
# System: mature HIV-1 protease
# Experiment: 50 mM sodium acetate, pH 5.0 or 100 mM sodium phosphate at pH 5.5 containing 1 mM DTT, 1 mM EDTA, 1M NaCl
# Conditions: 37° C.
row,cleaved bond,Molecule
1,Phe-Leu,DLAFLQGK
2,Asn-Phe,ERQANFLRED

# Target: T1, HIV-1 protease (Human immunodeficiency virus type 1 group M subtype B, UniProt P04585)
# Experiment: biochemical
# Conditions: not given
# Method: HIV-1 protease was obtained and its active site concentration was determined at 25° C. Purified enzyme was stored as a 5-8 μM stock solution in 50 mM NaOAc (pH 5.0), 1 mM DTT, 1 mM EDTA, 0.05% reduced Triton X-100 at -80° C. Porcine pepsin was prepared as 1-2 mg/ml in 50 mM formic acid (pH 3.0). The peptide concentrations were adjusted for their protein content.
# HIV-1 protease activity was measured at 25° C. using substrate I (Lys-Ala-Arg-Val-Nle-Phe (NO2) -Glu-Ala-Nle-NH2 wherein Nle is norleucine and Phe (NO2) is 4-nitrophenylalamine). In a typical assay, 2.5 μl of enzyme was added to 97.5 μl of buffer and 2.5 mM DTT in the presence or absence of varying concentrations of inhibitor. The reaction was initiated by the addition of 10 μl of a 4 mM solution of substrate I in water and monitored by following the decrease in absorption at […] in a 100 μl spectrophotometric cell. Pepsin was assayed using substrate II (Phe-Gly-His-Phe(NO2)-Phe-Ala-PheOCH3). […] Concentrations of substrate solutions were determined spectrophotometrically at […].
# The enzyme was assayed in the presence of the inhibitor in 50 mM sodium formate at pH 4.25 and 2.5 mM DTT. […] Peptides 12a and 12b were assayed at pH 4.4 and contained 0.083% and 0.02% DMSO, respectively.
row,Molecule,Ki [µM]
1,"N[C@@H](CC(=O)O)C(=O)N[C@@H](CC(=O)O)C(=O)O [Peptide 13, Asp--Asp] (H-Asp-Asp-OH)",970 ± 140
2,"N[C@@H](CCC(=O)O)C(=O)O [Peptide 16, Glutamic acid, reference compound]",> 50000
3,"N[C@@H](CC(=O)O)C(=O)O [Peptide 17, Aspartic acid, reference compound]",> 50000
4,"FLREDLAF [Peptide 1, Phe--Leu--Arg--Glu--Asp--Leu--Ala--Phe]",98 ± 10

# Same assay, conditions: 50 mM sodium formate pH 4.25, 2.5 mM DTT, substrate I 390 μM, 25° C.; peptides 1, 2, 4 from apparent Km vs [I], others from 1/V vs [I]; read-out: Ki
row,Molecule,Ki [µM]
1,Glu--Lys--Phe (EKF) [Peptide 11],2010 ± 360

# Same assay, conditions: Ki, 50 mM sodium formate pH 4.25, 2.5 mM DTT, substrate I 390 μM, 25° C.; peptides 1, 2, 4 from apparent Km vs [I], others from 1/V vs [I]
row,Molecule,Ki [µM]
1,"CC(C)C[C@H](NC(=O)[C@@H](N)CC(=O)O)C(=O)N[C@@H](C)C(=O)N[C@@H](Cc1ccccc1)C(=O)O [Peptide 6, Asp--Leu--Ala--Phe] (H-DLAF-OH)",270 ± 25
2,"CC(C)C[C@H](NC(=O)[C@H](CC(N)=O)NC(=O)[C@@H](N)CCC(=O)O)C(=O)O [Peptide 10, Glu--Asn--Leu] (H-Glu-Asn-Leu-OH)",3070 ± 210
3,"CC(C)C[C@H](NC(=O)[C@H](CCC(=O)O)NC(=O)[C@@H](N)CCC(=O)O)C(=O)O [Peptide 8, Glu--Glu--Leu] (H-Glu-Glu-Leu-OH)",310 ± 25
4,"N[C@@H](CC(=O)O)C(=O)N[C@@H](CCC(=O)O)C(=O)O [Peptide 14, Asp--Glu] (H-Asp-Glu-OH)",5400 ± 380
5,"NC(=O)CC[C@H](NC(=O)[C@@H](N)CC(=O)O)C(=O)O [Peptide 15, Asp--Gln] (H-Asp-Gln-OH)",> 1000
6,"FLRQNLAF [Peptide 18, Phe--Leu--Arg--Gln--Asn--Leu--Ala--Phe]",2000
7,"GEDLAF [Peptide 2, Gly--Glu--Asp--Leu--Ala--Phe]",64 ± 13
8,"CC(C)C[C@H](NC(=O)[C@H](CC(=O)O)NC(=O)[C@@H](N)CCC(=O)O)C(=O)N[C@@H](C)C(=O)O [Peptide 3, Glu--Asp--Leu--Ala] (H-EDLA-OH)",160 ± 20
9,"N[C@@H](CCC(=O)O)C(=O)N[C@@H](CC(=O)O)C(=O)N[C@@H](Cc1ccccc1)C(=O)O [Peptide 12, Glu--Asp--Phe] (H-Glu-Asp-Phe-OH)",25 ± 3
10,"CC(C)C[C@H](NC(=O)[C@H](CCC(=O)O)NC(=O)[C@@H](N)CC(=O)O)C(=O)O [Peptide 7, Asp--Glu--Leu] (H-Asp-Glu-Leu-OH)",230 ± 20
11,"N=C(N)NCCC[C@H](N)C(=O)N[C@@H](CCC(=O)O)C(=O)N[C@@H](CC(=O)O)C(=O)O [Peptide 5, Arg--Glu--Asp] (H-Arg-Glu-Asp-OH)",3360 ± 400
12,"CC(C)C[C@H](NC(=O)[C@H](CC(=O)O)NC(=O)[C@@H](N)CC(=O)O)C(=O)O [Peptide 9, Asp--Asp--Leu] (H-Asp-Asp-Leu-OH)",140 ± 6

# Same assay, conditions: Ki, NaCl 0 M; 50 mM sodium formate pH 4.25, 2.5 mM DTT; 1/V vs [I]
row,Molecule,Ki [µM]
1,"CC(C)C[C@H](NC(=O)[C@@H](N)CC(=O)O)C(=O)N[C@@H](C)C(=O)N[C@@H](Cc1ccccc1)C(=O)O [Peptide 6, Asp--Leu--Ala--Phe] (H-DLAF-OH)",270 ± 25
2,"N[C@@H](CCC(=O)O)C(=O)N[C@@H](CC(=O)O)C(=O)N[C@@H](Cc1ccccc1)C(=O)O [Peptide 12, Glu--Asp--Phe] (H-Glu-Asp-Phe-OH)",15 ± 2

# Same assay, conditions: Ki, NaCl 1 M; 50 mM sodium formate pH 4.25, 2.5 mM DTT; 1/V vs [I]
row,Molecule,Ki [µM]
1,"CC(C)C[C@H](NC(=O)[C@@H](N)CC(=O)O)C(=O)N[C@@H](C)C(=O)N[C@@H](Cc1ccccc1)C(=O)O [Peptide 6, Asp--Leu--Ala--Phe] (H-DLAF-OH)",3260 ± 390
2,"N[C@@H](CCC(=O)O)C(=O)N[C@@H](CC(=O)O)C(=O)N[C@@H](Cc1ccccc1)C(=O)O [Peptide 12, Glu--Asp--Phe] (H-Glu-Asp-Phe-OH)",410 ± 25

# Same assay, conditions: Ki, pH 4.4; 0.083% (12a) and 0.02% (12b) DMSO; 1/V vs [I]
row,Molecule,Ki [µM]
1,"N[C@@H](CC(=O)O)C(=O)N[C@@H](CC(=O)O)C(=O)N[C@@H](Cc1ccccc1)C(=O)O [Peptide 12a, Asp--Asp--Phe] (H-Asp-Asp-Phe-OH)",43 ± 7
2,"N[C@@H](Cc1ccccc1)C(=O)N[C@@H](CC(=O)O)C(=O)N[C@@H](CC(=O)O)C(=O)N[C@@H](Cc1ccccc1)C(=O)O [Peptide 12b, Phe--Asp--Asp--Phe] (H-FDDF-OH)",55 ± 14

# Target: T1, HIV-1 protease
# Experiment: biochemical
# Conditions: 1M NaCl, 50 mM sodium formate, pH 4.0, 2.5 mM DTT, 25° C.
row,Molecule,Ki [µM]
1,"CC(C)C[C@H](NC(=O)[C@@H](N)CC(=O)O)C(=O)N[C@@H](C)C(=O)N[C@@H](Cc1ccccc1)C(=O)O [Peptide 6, Asp--Leu--Ala--Phe] (H-DLAF-OH)",3260 ± 390
2,"N[C@@H](CCC(=O)O)C(=O)N[C@@H](CC(=O)O)C(=O)N[C@@H](Cc1ccccc1)C(=O)O [Peptide 12, Glu--Asp--Phe] (H-Glu-Asp-Phe-OH)",410 ± 25

# Target: T1, HIV-1 protease
# Experiment: HIV-1 protease hydrolysis of synthetic cleavage-site peptide substrates (RP-HPLC, Lineweaver-Burk)
# Format: biochemical
# Conditions: Gag cleavage sites
# Method: […] Reactions were terminated with 190 μl of a solution of 8M guanidine hydrochloride and 1% trifluroacetic acid (TFA) and subjected to reverse-phase high performance liquid chromotography ("RP-HPLC") on a C18 column. The substrate and cleavage products were separated with a linear gradient of 0 to 50% acetonitrile in water containing 0.05% TFA. The identity of the cleavage products was confirmed by electrospray mass spectroscopy. Peak areas were integrated using the Turbochrom 4 software (Perkin Elmer, San Jose, Calif.). Lineweaver-Burk analysis was used to determine kcat and Km.
row,Molecule,kcat /Km [M⁻¹ s⁻¹]
1,ARVL*AEAM,90000
2,SQNY*PIVQ,45000
3,ATIM*MQRG,74000
4,RQAN*FLGK,1600
5,PGNF*LQSR,600

# Same assay, conditions: Pol cleavage sites
row,Molecule,kcat /Km [M⁻¹ s⁻¹]
1,AETF*YVDG,10000
2,SFNF*PQIT,7000
3,"DLAFLQGK [DLAF*LQGK, Asp-Leu-Ala-Phe-Leu-Gln-Gly-Lys]",1200
4,TLNF*PISP,24000
5,"ERQANFLRED [ERQAN*FLRED, Glu-Arg-Gln-Ala-Asn-Phe-Leu-Arg-Glu-Asp]",0.019
6,RKIL*FLDG,200000
